Reference: US20240059698A1 (Accutar Biotechnology Inc., priority 2022, published 2024)

Key:
[1] = system: HCC827-SVD cells (human EGFR exon 20 insertion mutant D770_N771insSVD); test: Cell growth inhibition (CellTiter-Glo), HCC827-SVD; type: cell-based; conditions: 72 h, 3 days
Method: (§1) Generation of HCC827-SVD, HCC827-ASV, and HCC827-YVMA cell lines. The HCC827-SVD cell line was generated by first transducing HCC827 cells (ATCC) with lentiviral particles expressing codon-optimized human EGFR exon 20 insertion mutant D770_N771insSVD, and then selecting under 5 µg/mL puromycin treatment for a week. The resulting cells were further transduced with lentiviral particles carrying EGFR sgRNA and CAS9 to knockout the endogenous alleles of EGER and then selected under 500 µg/mL hygromycin B treatment for two weeks. The limiting dilution approach was used to subsequently generate the single clone of the HCC827-SVD stable cell line. Endogenous EGFR knockout was confirmed by Sanger sequencing of cell genomic DNA, and expression of exogenous mutant EGFR was verified by Western blot analysis.
(§2) 2. Cell Growth Inhibition for HCC827, HCC827-SVD, HCC827-ASV, HCC827-YVMA, and A431.
(§3) HCC827(ATCC), HCC827-SVD, HCC827-ASV, and HCC827-YVMA cells were seeded in 96-well plates at 5000 cells/well in 90 μL of RPMI growth medium containing 10% FBS and 1% Penicillin Streptomycin. A431 (ATCC) cells were seeded in 96-well plates at 5000 cells/well in 90 μL of DMEM growth medium containing 10% FBS and 1% Penicillin Streptomycin. Cells were incubated at 37° C. overnight and then administered with 10 μL 10× test compounds prepared in the growth medium at various concentrations. After administration of the compounds, cells were incubated at 37° C. for 3 days. Before the CellTiter-Glo assay, the plates were equilibrated at room temperature for approximately 30 minutes. 100 ul of CellTiter-Glo reagent (Promega) was added to each well. The plates were then incubated at room temperature for 10 minutes and luminescence was recorded by the EnSight® multimode plate reader (PerkinElmer). Table 7 listed selected compounds in cellular growth assay.

[2] = system: HCC827-YVMA cells (human ERBB2 exon20 insertion mutant A775_G776ins YVMA); test: Cell growth inhibition (CellTiter-Glo), HCC827-YVMA; type: cell-based; conditions: 72 h, HCC827-YVMA cells, 3 days, CellTiter-Glo, read-out: Cell growth inhibition, GI50 (nM) HCC827-YVMA
Method: as §1
HCC827-ASV and HCC827-YVMA cell lines were generated in a similar approach as HCC827-SVD, except that HCC827 cells (ATCC) were first transduced with lentiviral particles expressing codon-optimized human EGFR exon 20 insertion mutant V769_D770insASV and human ERBB2 exon20 insertion mutant A775_G776ins YVMA, respectively.
as §2, §3

GI50 [1] | GI50 [2] | Structure (SMILES)
50 to 200 nM | 50 to 200 nM | C=CC(=O)N1CCC(c2c[nH]c3ncnc(Nc4ccc(Oc5ccnc(NC(=O)C6CCCC6)c5)c(Cl)c4)c23)CC1 [Compound 38, N-[4-[2-chloro-4-[[5-(1-prop-2-enoyl-4-piperidyl)-7H-pyrrolo[2,3-d]pyrimidin-4-yl]amino]phenoxy]-2-pyridyl]cyclopentanecarboxamide]
200 to 1000 nM | 50 to 200 nM | C=CC(=O)N1CCC(c2csc3ncnc(Nc4ccc(Oc5ccnc(NC(=O)C6CCCC6)c5)cc4F)c23)CC1 [Compound 161, N-(4-(4-((5-(1-acryloylpiperidin-4-yl)thieno[2,3-d]pyrimidin-4-yl)amino)-3-fluorophenoxy)pyridin-2-yl)cyclopentanecarboxamide]
200 to 1000 nM | 200 to 1000 nM | C=CC(=O)N1CCC(c2c[nH]c3ncnc(Nc4ccc(OCc5ccnc(N6CC7CC7C6)c5)cc4F)c23)CC1 (centres unmarked) [Compound 79, 1-(4-(4-((4-((2-(3-azabicyclo[3.1.0]hexan-3-yl)pyridin-4-yl)methoxy)-2-fluorophenyl)amino)-7H-pyrrolo[2,3-d]pyrimidin-5-yl)piperidin-1-yl)prop-2-en-1-one]
200 to 1000 nM | 50 to 200 nM | C=CC(=O)N1CCC(c2c[nH]c3ncnc(Nc4ccc(Oc5ccnc(Nc6nccs6)c5)cc4F)c23)CC1 [Compound 72, 1-(4-(4-((2-fluoro-4-((2-(thiazol-2-ylamino)pyridin-4-yl)oxy)phenyl)amino)-7H-pyrrolo[2,3-d]pyrimidin-5-yl)piperidin-1-yl)prop-2-en-1-one]
50 to 200 nM | 50 to 200 nM | C=CC(=O)N1CCC(c2n[nH]c3ncnc(Nc4ccc(Oc5cccc(S(=O)(=O)NC6CC(F)(F)C6)c5)cc4F)c23)CC1 [Compound 185, 3-(4-((3-(1-acryloylpiperidin-4-yl)-1H-pyrazolo[3,4-d]pyrimidin-4-yl)amino)-3-fluorophenoxy)-N-(3,3-difluorocycloButyl)benzenesulfonamide]
< 50 nM | < 50 nM | C=CC(=O)N1CCC(c2c(C)[nH]c3ncnc(Nc4ccc(OCc5ccccn5)c(Cl)c4)c23)CC1 [Compound 76, 1-(4-(4-((3-chloro-4-(pyridin-2-ylmethoxy)phenyl)amino)-6-methyl-7H-pyrrolo[2,3-d]pyrimidin-5-yl)piperidin-1-yl)prop-2-en-1-one]
< 50 nM | < 50 nM | C=CC(=O)N1CCC(c2c[nH]c3ncnc(Nc4ccc(OCc5ccccn5)c(Br)c4)c23)CC1 [Compound 39, 1-(4-(4-((3-bromo-4-(pyridin-2-ylmethoxy)phenyl)amino)-7H-pyrrolo[2,3-d]pyrimidin-5-yl)piperidin-1-yl)prop-2-en-1-one]
< 50 nM | < 50 nM | C=CC(=O)N1CCC(c2c(-c3ccc(N4CCN(C)CC4)cc3)[nH]c3ncnc(Nc4ccc(OCc5ccccn5)c(Cl)c4)c23)CC1 [Compound 74, 1-(4-(4-((3-chloro-4-(pyridin-2-ylmethoxy)phenyl)amino)-6-(4-(4-methylpiperazin-1-yl)phenyl)-7H-pyrrolo[2,3-d]pyrimidin-5-yl)piperidin-1-yl)prop-2-en-1-one]
< 50 nM | < 50 nM | C=CC(=O)N1CCC(c2c[nH]c3ncnc(Nc4ccc(OCC(=O)NC(C)C)c(Cl)c4)c23)CC1 [Compound 55, 2-(4-((5-(1-acryloylpiperidin-4-yl)-7H-pyrrolo[2,3-d]pyrimidin-4-yl)amino)-2-chlorophenoxy)-N-isopropylacetamide]
< 50 nM | 50 to 200 nM | C=CC(=O)N1CCC(c2c[nH]c3ncnc(Nc4ccc(OCc5ccnc(NC6CCC6)c5)cc4F)c23)CC1 [Compound 84, 1-(4-(4-((4-((2-(cycloButylamino)pyridin-4-yl)methoxy)-2-fluorophenyl)amino)-7H-pyrrolo[2,3-d]pyrimidin-5-yl)piperidin-1-yl)prop-2-en-1-one]

Second part, the molecule before the results:

Structure (SMILES) | GI50 [1] | GI50 [2]
C=CC(=O)N1CCC(c2c[nH]c3ncnc(Nc4ccc(OCc5ccc6sccc6n5)c(Cl)c4)c23)CC1 [Compound 75, 1-(4-(4-((3-chloro-4-(thieno[3,2-b]pyridin-5-ylmethoxy)phenyl)amino)-7H-pyrrolo[2,3-d]pyrimidin-5-yl)piperidin-1-yl)prop-2-en-1-one] | < 50 nM | < 50 nM
C=CC(=O)N1CCC(c2c[nH]c3ncnc(Nc4ccc(Oc5ccnc(C6CCOCC6)c5)cc4F)c23)CC1 [Compound 64, 1-(4-(4-((2-fluoro-4-((2-(tetrahydro-2H-pyran-4-yl)pyridin-4-yl)oxy)phenyl)amino)-7H-pyrrolo[2,3-d]pyrimidin-5-yl)piperidin-1-yl)prop-2-en-1-one] | > 1000 nM | 200 to 1000 nM
C=CC(=O)N1CCC(c2csc3ncnc(Nc4ccc(Oc5ccnc(NC(=O)C(C)(C)C)c5)cc4F)c23)CC1 [Compound 162, N-(4-(4-((5-(1-acryloylpiperidin-4-yl)thieno[2,3-d]pyrimidin-4-yl)amino)-3-fluorophenoxy)pyridin-2-yl)pivalamide] | > 1000 nM | 200 to 1000 nM
C=CC(=O)N1CCC(c2c[nH]c3ncnc(Nc4ccc(Oc5ccnc(NC6(C)CC6)c5)cc4F)c23)CC1 [Compound 56, 1-(4-(4-((2-fluoro-4-((2-((1-methylcyclopropyl)amino)pyridin-4-yl)oxy)phenyl)amino)-7H-pyrrolo[2,3-d]pyrimidin-5-yl)piperidin-1-yl)prop-2-en-1-one] | 200 to 1000 nM | 200 to 1000 nM
C=CC(=O)N1CCC(c2c[nH]c3ncnc(Nc4ccc(Oc5ccnc(NCc6ccccn6)c5)cc4F)c23)CC1 [Compound 42, 1-(4-(4-((2-fluoro-4-((2-((pyridin-2-ylmethyl)amino)pyridin-4-yl)oxy)phenyl)amino)-7H-pyrrolo[2,3-d]pyrimidin-5-yl)piperidin-1-yl)prop-2-en-1-one] | 200 to 1000 nM | 200 to 1000 nM
C=CC(=O)N1CCC(c2c[nH]c3ncnc(Nc4ccc(Oc5ccnc(N6CCC(C(F)(F)F)C6)n5)cc4F)c23)CC1 (centres unmarked) [Compound 50, 1-(4-(4-((2-fluoro-4-((2-(3-(trifluoromethyl)pyrrolidin-1-yl)pyrimidin-4-yl)oxy)phenyl)amino)-7H-pyrrolo[2,3-d]pyrimidin-5-yl)piperidin-1-yl)prop-2-en-1-one] | 200 to 1000 nM | 50 to 200 nM
C=CC(=O)N1CCC(c2c[nH]c3ncnc(Nc4ccc(Oc5ccnc(N6CC(N(C)C)C6)c5)cc4F)c23)CC1 [Compound 129, 1-(4-(4-((4-((2-(3-(dimethylamino)azetidin-1-yl)pyridin-4-yl)oxy)-2-fluorophenyl)amino)-7H-pyrrolo[2,3-d]pyrimidin-5-yl)piperidin-1-yl)prop-2-en-1-one] | 200 to 1000 nM | 200 to 1000 nM
C=CC(=O)N1CCC(c2c[nH]c3ncnc(Nc4ccc(OCc5cncnc5)c(Cl)c4)c23)CC1 [Compound 77, 1-(4-(4-((3-chloro-4-(pyrimidin-5-ylmethoxy)phenyl)amino)-7H-pyrrolo[2,3-d]pyrimidin-5-yl)piperidin-1-yl)prop-2-en-1-one] | < 50 nM | < 50 nM
C=CC(=O)N1CCC(c2c[nH]c3ncnc(Nc4ccc(Oc5ccnc6cc[nH]c56)c(Cl)c4)c23)CC1 [Compound 46, 1-(4-(4-((4-((1H-pyrrolo[3,2-b]pyridin-7-yl)oxy)-3-chlorophenyl)amino)-7H-pyrrolo[2,3-d]pyrimidin-5-yl)piperidin-1-yl)prop-2-en-1-one] | 50 to 200 nM | 50 to 200 nM
C=CC(=O)N1CCC(c2c[nH]c3ncnc(Nc4ccc(OCc5cnc6n5CCCC6)c(Cl)c4)c23)CC1 [Compound 68, 1-(4-(4-((3-chloro-4-((5,6,7,8-tetrahydroimidazo[1,2-a]pyridin-3-yl)methoxy)phenyl)amino)-7H-pyrrolo[2,3-d]pyrimidin-5-yl)piperidin-1-yl)prop-2-en-1-one] | < 50 nM | < 50 nM
C=CC(=O)N1CCC(c2c[nH]c3ncnc(Nc4ccc(OCc5ncccc5F)c(Cl)c4)c23)CC1 [Compound 37, 1-(4-(4-((3-chloro-4-((3-fluoropyridin-2-yl)methoxy)phenyl)amino)-7H-pyrrolo[2,3-d]pyrimidin-5-yl)piperidin-1-yl)prop-2-en-1-one] | < 50 nM | < 50 nM
C=CC(=O)N1CCC(c2c[nH]c3ncnc(Nc4ccc(Oc5ccnc(Nc6ccccn6)n5)cc4F)c23)CC1 [Compound 44, 1-(4-(4-((2-fluoro-4-((2-(pyridin-2-ylamino)pyrimidin-4-yl)oxy)phenyl)amino)-7H-pyrrolo[2,3-d]pyrimidin-5-yl)piperidin-1-yl)prop-2-en-1-one] | 200 to 1000 nM | 200 to 1000 nM
